Laboratory results published in the NIST ThermoML archive (doi:10.1016/j.fluid.2017.12.031).
Where “and” joins values, the source holds several entries; their conditions need not be identical. Equal entries are not always repeated.

Experiments:
[1] = 313.15 K; Liquid; Closed cell (Static) method
[2] = excess molar enthalpy (molar enthalpy of mixing); xn = mol fraction of the nth substance listed; conditions: 101 kPa, Liquid, Flow calorimetry

Cc1ccc(C)c(C)c1 [1,2,4-trimethylbenzene]
Conditions	vapor or sublimation pressure [kPa]
[1]	0.73

Cc1ccc(C)c(C)c1 [1,2,4-trimethylbenzene] + CCCC(C)O
excess molar enthalpy [kJ/mol], [2]
Conditions	298.15 K	313.15 K
x2 = 0	0	0
x2 = 0.0499	0.601	0.622
x2 = 0.0987	–	0.992
x2 = 0.1012	0.911	–
x2 = 0.149	1.1	1.24
x2 = 0.1982	–	1.4
x2 = 0.2006	1.24	–
x2 = 0.2487	1.35	–
x2 = 0.2509	–	1.51
x2 = 0.298	1.42	–
x2 = 0.3002	–	1.6
x2 = 0.3485	1.47	–
x2 = 0.3507	–	1.64
x2 = 0.3979	1.5	1.67
x2 = 0.4482	1.51	–
x2 = 0.4504	–	1.67
x2 = 0.4996	1.49	1.66
x2 = 0.5476	–	1.62
x2 = 0.5496	1.46	–
x2 = 0.6005	–	1.55
x2 = 0.6006	1.4	–
x2 = 0.6482	–	1.45
x2 = 0.6502	1.31	–
x2 = 0.6987	–	1.33
x2 = 0.6988	1.21	–
x2 = 0.7479	–	1.19
x2 = 0.748	1.08	–
x2 = 0.7978	–	1.02
x2 = 0.7979	0.922	–
x2 = 0.8481	–	0.811
x2 = 0.8482	0.734	–
x2 = 0.8989	–	0.578
x2 = 0.899	0.519	–
x2 = 0.9501	–	0.3
x2 = 0.9502	0.271	–

Cc1ccc(C)c(C)c1 [1,2,4-trimethylbenzene] + CCCCCO
excess molar enthalpy [kJ/mol], [2]
Conditions	298.15 K	313.15 K
x2 = 0	0	0
x2 = 0.0503	0.52	0.582
x2 = 0.0995	0.734	0.864
x2 = 0.15	0.855	1.04
x2 = 0.1995	0.919	1.14
x2 = 0.2501	0.975	–
x2 = 0.2502	–	1.21
x2 = 0.2997	1.01	1.24
x2 = 0.3481	1.01	1.26
x2 = 0.3998	1.01	1.25
x2 = 0.4481	0.979	–
x2 = 0.4482	–	1.23
x2 = 0.4995	0.934	1.18
x2 = 0.5495	0.88	–
x2 = 0.5496	–	1.12
x2 = 0.5985	0.812	–
x2 = 0.5986	–	1.05
x2 = 0.6482	0.733	0.951
x2 = 0.6985	0.641	–
x2 = 0.6986	–	0.848
x2 = 0.7494	0.539	–
x2 = 0.7495	–	0.723
x2 = 0.7991	0.434	0.594
x2 = 0.8492	0.325	0.452
x2 = 0.8997	0.221	0.305
x2 = 0.9505	0.106	0.148

C=CCCCC [hex-1-ene]
Conditions	vapor or sublimation pressure
[1]	44.91 kPa and 44.95 kPa

C=CCCCC [hex-1-ene] + CCCC(C)O
[2], x2 = 0
Conditions	excess molar enthalpy [kJ/mol]
298.15 K	0
313.15 K	0

C=CCCCC [hex-1-ene] + CCCCCO
excess molar enthalpy [kJ/mol], [2]
Conditions	298.15 K	313.15 K
x2 = 0	0	0
x2 = 0.0506	–	0.508
x2 = 0.0507	0.397	–
x2 = 0.1005	–	0.664
x2 = 0.1006	0.498	–
x2 = 0.152	–	0.749
x2 = 0.1522	0.56	–
x2 = 0.2027	–	0.802
x2 = 0.203	0.598	–
x2 = 0.2528	–	0.816
x2 = 0.2531	0.62	–
x2 = 0.3021	–	0.829
x2 = 0.3022	0.63	–
x2 = 0.3526	–	0.807
x2 = 0.353	0.627	–
x2 = 0.4026	–	0.795
x2 = 0.403	0.611	–
x2 = 0.4519	–	0.764
x2 = 0.4523	0.579	–
x2 = 0.5026	–	0.718
x2 = 0.503	0.54	–
x2 = 0.5524	–	0.666
x2 = 0.5529	0.495	–
x2 = 0.6035	–	0.603
x2 = 0.604	0.444	–
x2 = 0.6519	–	0.531
x2 = 0.6523	0.382	–
x2 = 0.7019	0.325	0.457
x2 = 0.7526	0.263	0.372
x2 = 0.8008	0.2	–
x2 = 0.8025	–	0.285
x2 = 0.8482	0.146	–
x2 = 0.8517	–	0.211
x2 = 0.9019	–	0.132
x2 = 0.902	0.0871	–
x2 = 0.9513	0.038	0.0581

CCCCCO [pentan-1-ol]
Conditions	vapor or sublimation pressure
[1]	0.913 kPa and 0.918 kPa

CCCCCO [pentan-1-ol] + C=CCCCC
[2], x1 = 1
Conditions	excess molar enthalpy [kJ/mol]
298.15 K	0
313.15 K	0

CCCCCO [pentan-1-ol] + Cc1ccc(C)c(C)c1
[2], x1 = 1
Conditions	excess molar enthalpy [kJ/mol]
298.15 K	0
313.15 K	0

CCCC(C)O (configuration not stated) [pentan-2-ol]
Conditions	vapor or sublimation pressure
[1]	2.281 kPa and 2.268 kPa

CCCC(C)O (configuration not stated) [pentan-2-ol] + C=CCCCC
excess molar enthalpy [kJ/mol], [2]
Conditions	298.15 K	313.15 K
x1 = 0.05	–	0.59
x1 = 0.0503	0.489	–
x1 = 0.0999	0.659	0.821
x1 = 0.1511	0.766	–
x1 = 0.1512	–	0.957
x1 = 0.2015	0.845	–
x1 = 0.2017	–	1.06
x1 = 0.2513	0.902	–
x1 = 0.2516	–	1.11
x1 = 0.3027	0.94	–
x1 = 0.3028	–	1.16
x1 = 0.3512	0.963	–
x1 = 0.3513	–	1.18
x1 = 0.4032	0.979	–
x1 = 0.4034	–	1.18
x1 = 0.4509	–	1.16
x1 = 0.4525	0.979	–
x1 = 0.5014	–	1.14
x1 = 0.503	0.962	–
x1 = 0.5513	–	1.09
x1 = 0.5529	0.928	–
x1 = 0.6005	–	1.04
x1 = 0.6018	0.877	–
x1 = 0.6523	0.811	0.95
x1 = 0.702	0.731	0.86
x1 = 0.751	0.631	0.752
x1 = 0.8004	0.514	–
x1 = 0.8012	–	0.623
x1 = 0.85	0.391	–
x1 = 0.8506	–	0.48
x1 = 0.9007	0.24	–
x1 = 0.9012	–	0.31
x1 = 0.9507	0.112	–
x1 = 0.9509	–	0.155
x1 = 1	0	0

CCCC(C)O (configuration not stated) [pentan-2-ol] + Cc1ccc(C)c(C)c1
[2], x1 = 1
Conditions	excess molar enthalpy [kJ/mol]
298.15 K	0
313.15 K	0
